{"source": "patent US20210147932A1", "about": "“FLUORESCENT PROBES FOR QUANTIFICATION OF DNA DAMAGE AND REPAIR” (The Board of Trustees of the Leland Stanford Junior …, priority 2019, published 2021)", "molecules": {"B1": {"name": "UGI: the UNG inhibitor UGI; tight 1:1 binding stoichiometry; protein inhibitor (protein, UniProt P14739 1-84, looked up)", "Uracil-DNA glycosylase …": "MTNLSDIIEKETGKQLVIQESILMLPEEVEEVIGNKPESDILVHTAYDESTDENVMLLTSDAPEYKPWALVIQDSNGENKIKML"}}, "type_in_all_cases": "biochemical", "key": {"[1]": {"system": "DNA AP site (AP site containing DNA, oligo 15)", "assay": "Fluorescence response of probe covalently attached to the AP site of a DNA hairpin", "details": "for brightness when bound to the AP site compared to CCVJ1: Oligo 15 DNA", "procedure": "FIG. 2B provides emission spectra of oligonucleotide-probe conjugates compared to the emission spectra of the free probe at 2 μM concentration in 50 mM Tris buffer pH 7.0. Excitation was at 470 nm for Compound (1) (also referred to herein as CCVJ1) and 450 nm for Compounds 8 and 9 (also referred to herein as NP1 and NP2) and Compounds 4 and 6 (also referred to herein as BD1 and BD2).\nTo assess the potential fluorescence response of each probe, a 17mer DNA hairpin containing a single AP site was prepared and reacted it with a 10-fold excess of probe overnight. The subsequent DNA-probe conjugates were precipitated to remove excess fluorophore and full DNA labelling was confirmed by MALDI-TOF mass spectrometry (Table 1). The reacted DNAs were re-suspended in buffer to a concentration of 2 μM and the emission spectra compared with the spectra of the free probes in solution. […] In addition to its large fluorescence response, CCVJ1 is accessed readily through a facile 4-step synthesis and has good spectral overlap with fluorescein. This makes the probe accessible to a wide range of researchers and well suited to the majority of fluorescence-based instruments.\n(§1) In addition to the 5′ and 3′ neighboring bases, studies were done of the effect of the orphaned base Z paired opposite the abasic site on the UBER probe system (FIG. 10, panels C-D). Using the sequence where X=C and Y=G, the identity was varied of the base Z opposite the AP site. […] As a result, the smaller pyrimidine bases yielded a greater fluorescence light up response than the larger purine bases. It was also observed a strong effect by the opposing base on the rate of oxime formation (FIG. 10, panel D). […] This trend is in contrast to the neighboring base effect discussed above in which stronger stacking bases accelerated the rate of oxime formation.\n(§2) General procedure for creating AP site DNA: A deoxyuridine containing oligonucleotide (typically 5-20 μM) was treated with 10 U/mL E. coli UDG (New England Biolabs) for 10 minutes at 37° C. in buffer to create AP site containing DNA (see below for MALDI-TOF confirmation). The hairpin was then reacted with probe from a DMSO stock solution (final DMSO concentration <5%).\nProcedure for assessing fluorescence response of probes: To assess the fluorescence response of the probes, 25 μM AP site containing DNA (oligo 15) was prepared in a 20 μL solution and allowed to react with 500 μM of each probe overnight. The DNA was then precipitated by the addition of 80 μL 0.33 M sodium acetate and 300 μL ethanol and centrifuged at 21,100 g for 1 hr at 4° C. The resulting DNA pellet was washed twice with 70% EtOH and re-suspended in buffer to a concentration of 2 μM. A portion of the DNA pellet was used for MALDI-TOF analysis. The emission spectra of the probe-oligonucleotide conjugate was measured and compared against a 2 μM solution of the free probe"}, "AP-DNA": {"system": "AP-DNA", "assay": "Oxime formation kinetics of probe with AP-DNA", "details": "5 μM probe; for rate of oxime formation with AP DNA: Oligo 15 20 μM, 37° C.; for reaction rate of oxime formation relative to CCVJ1 (longer linker): 20 μM AP-DNA, 50 mM Tris pH 7.0", "procedure": "FIG. 3 provides representative plots for calculations of k2 for Compound (1) (CCVJ1) under various buffer conditions with oligo 15. Plots were fitted in OriginPro 8.5 according to the equation derived by Larsen et. al.^5 for second-order rate constants of oxime formation. Apparent second-order rate constants were calculated as the average of three replicates.\nFIG. 5A provides fluorescence real-times responses for oxime formation under varied conditions. The Time course of oxime formation between Compound (1) (CCVJ1) (5 μM) and AP-DNA (20 μM) under varied buffer conditions (50 mM) is shown. Ionic strength adjusted to 150 mM with NaCl\nNext the reaction rates with CCVJ1 were evaluated. To measure oxime formation kinetics, 5 μM CCVJ1 was reacted with 20 μM AP DNA, and the resulting fluorescence time course was used to determine second-order rate constants by nonlinear regression analysis. Tris buffer was selected since it is commonly used in glycosylase assays with a salt concentration of 100 mM NaCl.\nIn addition to Tris buffer, oxime formation kinetics were also measured for CCVJ1 with AP DNA in a solution of a catalytic amine buffer previously shown to accelerate oxime formation. To this end, it was employed 50 mM N,N-dimethylethylenediamine (DEDA)•HCl buffered to a pH of 7.0 in place of the above Tris buffers. […] Such rapid rates of oxime formation at neutral pH are unprecedented for unactivated aldehydes.\nas §1, §2\nFluorescence time courses: Unless otherwise stated, fluorescence time courses were collected on a Fluoroskan Ascent Microplate Fluorometer (Thermo Fisher Scientific) with black, non-binding 384 well plates (Greiner) at a reaction volume of 60 μL with 50 mM Tris buffer pH 7 (ionic strength adjusted to 100 mM with NaCl) with a fluorescein filter set (Ex. 485, Em. 538)."}, "AP site-containing DNA": {"system": "AP site-containing DNA", "assay": "Competition for oxime formation between CCVJ1 and AP site-containing DNA", "details": "up to 500 μM linker, CCVJ1 5 μM, AP DNA 20 μM", "procedure": "FIG. 6 provides effect of adding exemplary linker NH2CH2CH2ONH2 to the reaction of Compound (1) (CCVJ1) (5 μM) with AP site containing DNA (20 μM) in buffer.\nFIG. 9 provides interaction between Compound (1) (CCVJ1) and DNA. […] (Ex. 485, Em. 538).\nFIG. 14 provides effect of competing aldehydes/ketones on maximum fluorescence signal.\nAdditional experiments were performed to study the origins of this unusually rapid reaction. […] To test the effect that proximity between the alkoxyamine and planar portion of the probe had on oxime kinetics in our probes, probes were synthesized having variable-length linkers (CCVJ2 and CCVJ3) from aldehyde reactive linkers L2 and L3 respectively (FIG. 2A). […] To test the importance of a double-stranded DNA structure to the rate and fluorescence response, an AP-containing single-stranded DNA oligonucleotide was reacted with CCVJ1. At pH 7, CCVJ1 reacted with a second-order rate constant of 33 M^−1s^−1 with the single-stranded substrate, roughly 5-fold slower than a double-stranded hairpin with identical sequence context (FIG. 8).\nTo further explore the hypothesis that the oxime rate acceleration in these AP-site DNAs was related to base stacking interactions, the fluorescence was measured of CCVJ1 in the presence and absence of a non-lesion containing DNA hairpin.\nSince the probe design involves conformational restriction to induce a light-up signal, it was hypothesized that off-target oxime formation with small molecules might induce a relatively small signal relative to DNA, thus providing a measure of selectivity in signaling. […] Another potential aspect is that ketones or aldehydes in the environment might compete with the DNA AP site to react with the aminooxy group, thereby consuming the free probe and reducing the maximum signal. Initial testing of the reactivity of CCVJ1 with AP site-containing DNA in the presence of increasing amounts of competing 2-deoxyribose, the closest small-molecule analogue to the DNA AP site. […] This was repeated this experiment with pyruvic acid, a highly reactive ketone and a common cellular metabolite."}, "OGG1": {"biological_target": "T1, OGG1 (Homo sapiens, UniProt O15527)", "T1 construct": "host or cells: MCF-7 whole cell lysate", "T1 sequence (O15527 whole entry)": "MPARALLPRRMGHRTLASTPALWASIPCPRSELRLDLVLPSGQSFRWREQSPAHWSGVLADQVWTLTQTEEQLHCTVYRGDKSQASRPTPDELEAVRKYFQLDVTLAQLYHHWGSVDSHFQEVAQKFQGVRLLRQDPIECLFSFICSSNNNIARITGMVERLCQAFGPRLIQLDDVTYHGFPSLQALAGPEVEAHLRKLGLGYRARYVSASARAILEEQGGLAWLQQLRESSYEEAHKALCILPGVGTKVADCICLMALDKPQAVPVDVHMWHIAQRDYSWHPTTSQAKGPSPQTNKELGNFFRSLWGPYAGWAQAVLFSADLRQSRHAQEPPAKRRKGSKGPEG", "assay": "OGG1 activity in MCF7 lysates with CCVJ1", "details": "MCF7 lysate 0.2 mg/mL, 4 h incubation, 25 μM CCVJ1", "procedure": "FIG. 20 provides fluorescence measurement of MCF7 cell lysates (0.2 mg/mL) with 25 μM Compound (1) (CCVJ1) following a 4-hour incubation with 5 μM of an OGG1 hairpin substrate. The inhibitor SU0268 was used to abrogate OGG1 activity. Error bars represent standard deviation of three replicates.\nEncouraged by the results, whether the UBER probe could detect endogenous glycosylase activity was tested from a more challenging target such as OGG1. It is well established that the turnover number of UNG is quite high (˜1-10 s^−1)^5 while the turnover number for many other glycosylases is quite low (0.001-0.1 s^−1). Additionally, most glycosylases, including OGG1, have very low basal expression levels in healthy cells. Given these facts, previous attempts to detect OGG1 activity in lysates have relied on a multistep signal amplification process or extended reaction times (24-48 hrs) to yield signal. […] In this case, the majority of the background signal observed was attributed to intercalation of probe into unreacted hairpin as well as genomic DNA.\n(§3) Cell Lysate Experiments: HeLa or MCF-7 whole cell lysates (Santa Cruz Biotech) were used without further preparation. […] Fluorescence intensity was monitored over the course of 4 hours at 37° C."}, "UNG [2]": {"biological_target": "T2, UNG (Homo sapiens, UniProt P13051)", "T2 sequence (P13051 whole entry)": "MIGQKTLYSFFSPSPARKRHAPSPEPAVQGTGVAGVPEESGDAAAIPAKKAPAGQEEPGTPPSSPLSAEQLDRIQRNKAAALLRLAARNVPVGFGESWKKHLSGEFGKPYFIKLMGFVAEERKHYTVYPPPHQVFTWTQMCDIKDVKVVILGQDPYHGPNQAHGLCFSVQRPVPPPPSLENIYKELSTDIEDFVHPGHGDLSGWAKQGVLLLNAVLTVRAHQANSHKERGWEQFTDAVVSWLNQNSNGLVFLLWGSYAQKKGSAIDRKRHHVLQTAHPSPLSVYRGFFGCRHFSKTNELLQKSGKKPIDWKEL", "assay": "UGI IC50 measurement in UBER probe coupled assay", "parameters": "purchased OriGene", "details": "UNG 5 nM, UGI 0.3 to 30 nM, initial rates after 25 minute delay, triplicate", "procedure": "FIG. 15, panels A-G provides quantitative coupled assays using Compound (1) (CCJV1). Shown are data from reaction of lesion containing substrates with UNG and SMUG1 (5 nM) (panel A), MPG (100 nM) (panel B), NTH1 (500 nM) (panel C), OGG1 (100 nM) in real-time (panel D) with lesion containing DNA (2 μM) and CCVJ1 (20 μM) (panels A, B and D) or lesion containing DNA (60 μM) and CCVJ1 (20 μM) […]. […] Delay time tss of 25 minutes indicated with dotted line.\nBased on the results of our neighboring base effect study, several glycosylase oligonucleotide substrates were purchased or prepared in which the identity of the base lesion X was varied to correspond to the known activities of different target glycosylases (FIG. 15, panel E). For these studies human enzymes SMUG1/UNG, OGG1, MPG and NTH1, were chosen which represent a diverse array of human glycosylases. […] Assays were carried out in a 60 μL volume in a 384 well format on a microplate reader using a fluorescein filter set. For each enzyme, it was possible to observe a robust fluorescence signal (FIG. 15, panels A-D).\nTo test the utility of the probe coupled assay for characterizing inhibitors, it was measured the IC50 value of the UNG inhibitor UGI (FIG. 15, panels F-G). […] In all cases, the z-factor of the assay was calculated to be >0.95, well above the threshold necessary for high throughput screening. […]"}, "UNG [3]": {"biological_target": "T2, UNG", "assay": "UNG activity in HeLa cell lysate with CCVJ1", "parameters": "profile endogenous glycosylase activity in cell lysates; host or cells: HeLa whole cell lysate", "details": "1 U/mL UGI, 0.2 mg/mL HeLa lysate, 5 μM hairpin, 25 μM CCVJ1", "procedure": "FIG. 19, panels A-B illustrates applications of an exemplary probe for measuring multiple repair activities in cell lysates. […] The inhibitor UGI was used at a concentration of 1 U/mL to completely abolish UNG activity. […] Activity was quantified by measuring initial rate velocity using 25 μM CCVJ1 with lysate (0.2 mg/mL) and 5 μM of UNG hairpin substrate.\nIt was first tested whether the UBER probe's ability to report on UNG activity in whole cell lysates using the previously described UNG hairpin substrate (FIG. 19, panel A). […] To confirm that the fluorescence response originated from endogenous UNG activity and not off-target binding with proteins or spontaneous depurination, lysate was treated with CCVJ1 and a control hairpin in which the lesion had been replaced by an undamaged T:A base pair. Importantly, the control hairpin yielded no fluorescence response indicating a low degree of false positive signal. […] CCVJ1 appears to represent the first fluorogenic probe to measure real-time UNG activity in cell lysates.\nas §3"}}, "data": [{"molecule": "CN(C)c1ccc(S(=O)(=O)N(C)CCON)c2nonc12", "note": "[BD1]", "values": [{"measurement": "fluorescence response with AP DNA", "setting": "[1]", "result": "substantial fluorescence responses"}, {"measurement": "rate of oxime formation with AP DNA", "setting": "AP-DNA", "result": "accelerated rates of oxime formation"}]}, {"molecule": "CN(CCON)c1ccc(S(=O)(=O)N(C)C)c2nonc12", "note": "[BD2]", "values": [{"measurement": "fluorescence response with AP DNA", "setting": "[1]", "result": "substantial fluorescence responses"}, {"measurement": "rate of oxime formation with AP DNA", "setting": "AP-DNA", "result": "accelerated rates of oxime formation"}]}, {"molecule": "N#C/C(=C\\c1cc2c3c(c1)CCCN3CCC2)C(=O)NCCOCCON", "note": "[CCVJ2]", "values": [{"measurement": "brightness when bound to the AP site compared to CCVJ1", "setting": "[1]", "result": "diminished compared to that of CCVJ1"}, {"measurement": "reaction rate of oxime formation relative to CCVJ1 (longer linker)", "setting": "AP-DNA", "result": "slowed the reaction rate considerably"}]}, {"molecule": "N#C/C(=C\\c1cc2c3c(c1)CCCN3CCC2)C(=O)NCCOCCOCCON", "note": "[CCVJ3]", "values": [{"measurement": "brightness when bound to the AP site compared to CCVJ1", "setting": "[1]", "result": "diminished compared to that of CCVJ1"}, {"measurement": "reaction rate of oxime formation relative to CCVJ1 (longer linker)", "setting": "AP-DNA", "result": "slowed the reaction rate considerably"}]}, {"molecule": "NCCON", "note": "[Compound L1, NH2CH2CH2ONH2]", "values": [{"measurement": "effect as competing alpha nucleophile on reaction of CCVJ1 with AP DNA", "setting": "AP site-containing DNA", "result": "no effect"}, {"measurement": "effect as competing alpha nucleophile on reaction of CCVJ1 with AP DNA", "setting": "AP site-containing DNA; listed as NH2CH2CH2ONH2", "result": "does not significantly compete with CCVJ1 for oxime formation"}]}, {"molecule": "CN(CCON)c1ccc2c3c(cccc13)C(=O)N(CCC(=O)O)C2=O", "note": "[NP1]", "values": [{"measurement": "fluorescence response with AP DNA", "setting": "[1]", "result": "substantial fluorescence responses"}, {"measurement": "rate of oxime formation with AP DNA", "setting": "AP-DNA", "result": "accelerated rates of oxime formation"}]}, {"molecule": "NC(=O)c1cccc(-c2ccc(S(=O)(=O)Nc3ccc4c(c3)N(C(=O)C3CC3)CCC4)cc2)c1", "note": "[SU0268]", "values": [{"measurement": "effect of inhibitor on OGG1 repair activity in lysate", "setting": "OGG1", "result": "completely abolished OGG1 repair activity"}]}, {"molecule": "B1", "values": [{"measurement": "IC50", "setting": "UNG [2]", "result": "7.53 ± 0.44", "unit": "nM"}, {"measurement": "effect of inhibitor on fluorescence response (UNG activity) in lysate", "setting": "UNG [3]", "result": "completely ablated the fluorescence response"}]}]}
